Measured values published in patent US9695155B2, “Herbicidal substituted pyrimidinyloxy benzene compounds” (E. I. DU PONT DE NEMOURS AND COMPANY, priority 2013, dated 2017).

Legend:
[1] = system: velvetleaf; test: Test A preemergence; format: in vivo, Abutilon theophrasti; details: for Velvetleaf plant response rating (0 to 100 scale): 125 g ai/ha; for Velvetleaf plant response rating: 500 g ai/ha, 0 to 100 scale where 0 is no effect and 100 is complete control
Summary of the method: (§1)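 Visual injury scored 0–100 (100 = complete control) against untreated controls about 10 days after treatment in a greenhouse. Test chemicals, formulated with surfactant in non-phytotoxic solvent, were sprayed on soil preemergence or on 2-10 cm, one- to two-leaf plants postemergence.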

[2] = system: barnyardgrass; test: Test A preemergence; format: in vivo, Echinochloa crus-galli; details: for Barnyardgrass plant response rating (0 to 100 scale, 0 is no effect, 100 is complete control): 125 g ai/ha; for Barnyardgrass plant response rating: 500 g ai/ha, 0 to 100 scale where 0 is no effect and 100 is complete control
Summary of the method: as §1

[3] = system: velvetleaf; test: Test A postemergence; format: in vivo, Abutilon theophrasti
Summary of the method: as §1

[4] = system: corn; test: Test A postemergence; format: in vivo, Zea mays
Summary of the method: as §1

[5] = system: barnyardgrass; test: Test A postemergence; format: in vivo, Echinochloa crus-galli
Summary of the method: as §1

[6] = system: morningglory; test: Test A preemergence; format: in vivo, Ipomoea spp.; details: for Morningglory plant response rating (0 to 100 scale): 125 g ai/ha; for Morningglory plant response rating: 500 g ai/ha, 0 to 100 scale where 0 is no effect and 100 is complete control
Summary of the method: as §1

[7] = system: large (Lg) crabgrass; test: Test A preemergence; format: in vivo, Digitaria sanguinalis; details: for Crabgrass, Large plant response rating (0 to 100 scale): 125 g ai/ha; for Crabgrass, Large plant response rating: 500 g ai/ha, 0 to 100 scale where 0 is no effect and 100 is complete control
Summary of the method: as §1

[8] = system: wheat; test: Test A preemergence; format: in vivo, Triticum aestivum; details: for Wheat plant response rating (0 to 100 scale): 125 g ai/ha; for Wheat plant response rating: 500 g ai/ha, 0 to 100 scale where 0 is no effect and 100 is complete control
Summary of the method: as §1

[9] = system: rice; test: Test C flooded paddy test; format: in vivo, Oryza sativa; details: Flood, scale 0 to 100 (0 no effect, 100 complete control), 13 to 15 days
From the text: (§2) At time of treatment, test pots were flooded to 3 cm above the soil surface, treated by application of test compounds directly to the paddy water, and then maintained at that water depth for the duration of the test. Treated plants and controls were maintained in a greenhouse for 13 to 15 days, after which time all species were compared to controls and visually evaluated. […] A dash (-) response means no test result.

[10] = system: sedge, umbrella; test: Test B flooded paddy test; format: in vivo, Cyperus difformis; details: Flood, 250 g ai/ha; 0 to 100 scale where 0 is no effect and 100 is complete control
Summary of the method: (§3)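 Plants at 2-leaf stage; pots flooded to 3 cm above soil and compound applied directly into paddy water, depth held throughout. After 13 to 15 days in greenhouse, visual rating versus controls on 0 (no effect) to 100 (complete control) scale.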

[11] = system: ducksalad; test: Test C flooded paddy test; format: in vivo, Heteranthera limosa; details: Flood, scale 0 to 100 (0 no effect, 100 complete control), 13 to 15 days
From the text: as §2

[12] = system: morningglory; test: Test A postemergence; format: in vivo, Ipomoea spp.
Summary of the method: as §1

[13] = system: large (Lg) crabgrass; test: Test A postemergence; format: in vivo, Digitaria sanguinalis
Summary of the method: as §1

[14] = system: giant foxtail; test: Test A preemergence; format: in vivo, Setaria faberii; details: for Foxtail, Giant plant response rating (0 to 100 scale): 125 g ai/ha; for Foxtail, Giant plant response rating: 500 g ai/ha, 0 to 100 scale where 0 is no effect and 100 is complete control
Summary of the method: as §1

[15] = system: sedge, umbrella; test: Test C flooded paddy test; format: in vivo, Cyperus difformis; details: Flood, scale 0 to 100 (0 no effect, 100 complete control), 13 to 15 days
From the text: as §2

[16] = system: giant foxtail; test: Test A postemergence; format: in vivo, Setaria faberii
Summary of the method: as §1

[17] = system: pigweed; test: Test A postemergence; format: in vivo, Amaranthus retroflexus
Summary of the method: as §1

[18] = system: corn; test: Test A preemergence; format: in vivo, Zea mays; details: for Corn plant response rating (0 to 100 scale): 125 g ai/ha; for Corn plant response rating: 500 g ai/ha, 0 to 100 scale where 0 is no effect and 100 is complete control
Summary of the method: as §1

[19] = system: Heteranthera limosa; test: Test B flooded paddy test; format: in vivo; details: Flood, 250 g ai/ha; 0 to 100 scale where 0 is no effect and 100 is complete control
Summary of the method: as §3

[20] = system: barnyardgrass; test: Test C flooded paddy test; format: in vivo, Echinochloa crus-galli; details: Flood, scale 0 to 100 (0 no effect, 100 complete control), 13 to 15 days
Summary of the method: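 Ratings were visual and made relative to untreated controls after 13 to 15 greenhouse days.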

[21] = system: barnyardgrass; test: Test B flooded paddy test; format: in vivo, Echinochloa crus-galli; details: Flood, 250 g ai/ha; 0 to 100 scale where 0 is no effect and 100 is complete control
Summary of the method: as §3

[22] = system: wheat; test: Test A postemergence; format: in vivo, Triticum aestivum
Summary of the method: as §1

[23] = system: pigweed; test: Test A preemergence; format: in vivo, Amaranthus retroflexus; details: for Pigweed plant response rating (0 to 100 scale): 125 g ai/ha; for Pigweed plant response rating: 500 g ai/ha, 0 to 100 scale where 0 is no effect and 100 is complete control
Summary of the method: as §1

[24] = system: rice; test: Test B flooded paddy test; format: in vivo, Oryza sativa; details: Flood, 250 g ai/ha; 0 to 100 scale where 0 is no effect and 100 is complete control
Summary of the method: as §3

[25] = 125 g ai/ha, 0 to 100 scale where 0 is no effect and 100 is complete control
[26] = 500 g ai/ha, 0 to 100 scale where 0 is no effect and 100 is complete control
[27] = 125 g ai/ha, 0 to 100 scale, 0 no effect, 100 complete control

FC(F)c1cccc(Oc2ncc(Cl)cn2)c1-n1cc(I)cn1 [Compound 184]
Velvetleaf plant response rating (0 to 100 scale) [1]: 20
Velvetleaf plant response rating [1]: 60
Barnyardgrass plant response rating (0 to 100 scale, 0 is no effect, 100 is complete control) [2]: 30
Barnyardgrass plant response rating [2]: 100
Velvetleaf plant response rating [3, 25]: 80
Plant response rating, Velvetleaf [3, 26]: 90
Corn plant response rating [4, 25]: 20
Plant response rating, Corn [4, 26]: 70
Barnyardgrass plant response rating [5, 25]: 60
Plant response rating, Barnyardgrass [5, 26]: 90
Morningglory plant response rating (0 to 100 scale) [6]: 0
Morningglory plant response rating [6]: 90
Crabgrass, Large plant response rating (0 to 100 scale) [7]: 100
Crabgrass, Large plant response rating [7]: 100
Wheat plant response rating (0 to 100 scale) [8]: 0
Wheat plant response rating [8]: 30
Plant response rating, Rice ([9]; 31 g ai/ha): 0
Plant response rating, Rice ([9]; 62 g ai/ha): 0
Plant response rating, Rice ([9]; 125 g ai/ha): 0
Plant response rating, Rice ([9]; 250 g ai/ha): 0
Plant response rating, Sedge, Umbrella [10]: 95
Plant response rating, Ducksalad ([11]; 31 g ai/ha): 0
Plant response rating, Ducksalad ([11]; 62 g ai/ha): 30
Plant response rating, Ducksalad ([11]; 125 g ai/ha): 30
Plant response rating, Ducksalad ([11]; 250 g ai/ha): 75
Morningglory plant response rating [12, 25]: 60
Plant response rating, Morningglory [12, 26]: 90
Crabgrass, Large plant response rating [13, 25]: 70
Plant response rating, Crabgrass, Large [13, 26]: 80
Foxtail, Giant plant response rating (0 to 100 scale) [14]: 100
Foxtail, Giant plant response rating [14]: 100
Plant response rating, Sedge, Umbrella ([15]; 31 g ai/ha): 0
Plant response rating, Sedge, Umbrella ([15]; 62 g ai/ha): 0
Plant response rating, Sedge, Umbrella ([15]; 125 g ai/ha): 50
Plant response rating, Sedge, Umbrella ([15]; 250 g ai/ha): 75
Foxtail, Giant plant response rating [16, 25]: 70
Plant response rating, Foxtail, Giant [16, 26]: 80
Pigweed plant response rating [17, 25]: 100
Plant response rating, Pigweed [17, 26]: 100
Corn plant response rating (0 to 100 scale) [18]: 20
Corn plant response rating [18]: 20
Plant response rating, Ducksalad [19]: 100
Plant response rating, Barnyardgrass ([20]; 31 g ai/ha): 0
Plant response rating, Barnyardgrass ([20]; 62 g ai/ha): 0
Plant response rating, Barnyardgrass ([20]; 125 g ai/ha): 0
Plant response rating, Barnyardgrass ([20]; 250 g ai/ha): 0
Plant response rating, Barnyardgrass [21]: 0
Wheat plant response rating [22, 25]: 30
Plant response rating, Wheat [22, 26]: 90
Pigweed plant response rating (0 to 100 scale) [23]: 100
Pigweed plant response rating [23]: 100
Plant response rating, Rice [24]: 10

C[Si](C)(C)C#Cc1cccc(Oc2ncc(Cl)cn2)c1-n1cc(Br)cn1 [Compound 293]
Velvetleaf plant response rating (0 to 100 scale) [1]: 0
Velvetleaf plant response rating [1]: 0
Barnyardgrass plant response rating (0 to 100 scale, 0 is no effect, 100 is complete control) [2]: 0
Barnyardgrass plant response rating [2]: 10
Plant response rating, Velvetleaf [3, 27]: 60
Plant response rating, Velvetleaf [3, 26]: 80
Plant response rating, Corn [4, 27]: 0
Plant response rating, Corn [4, 26]: 20
Plant response rating, Barnyardgrass [5, 27]: 10
Plant response rating, Barnyardgrass [5, 26]: 10
Morningglory plant response rating (0 to 100 scale) [6]: 0
Morningglory plant response rating [6]: 0
Crabgrass, Large plant response rating (0 to 100 scale) [7]: 40
Crabgrass, Large plant response rating [7]: 90
Wheat plant response rating (0 to 100 scale) [8]: 0
Wheat plant response rating [8]: 0
Plant response rating, Rice ([9]; 31 g ai/ha): 0
Plant response rating, Rice ([9]; 62 g ai/ha): 0
Plant response rating, Rice ([9]; 125 g ai/ha): 0
Plant response rating, Sedge, Umbrella [10]: 80
Plant response rating, Ducksalad ([11]; 31 g ai/ha): 30
Plant response rating, Ducksalad ([11]; 62 g ai/ha): 40
Plant response rating, Ducksalad ([11]; 125 g ai/ha): 75
Plant response rating, Morningglory [12, 27]: 10
Plant response rating, Morningglory [12, 26]: 30
Plant response rating, Crabgrass, Large [13, 27]: 20
Plant response rating, Crabgrass, Large [13, 26]: 30
Foxtail, Giant plant response rating (0 to 100 scale) [14]: 20
Foxtail, Giant plant response rating [14]: 90
Plant response rating, Sedge, Umbrella ([15]; 31 g ai/ha): 60
Plant response rating, Sedge, Umbrella ([15]; 62 g ai/ha): 75
Plant response rating, Sedge, Umbrella ([15]; 125 g ai/ha): 85
Plant response rating, Foxtail, Giant [16, 27]: 20
Plant response rating, Foxtail, Giant [16, 26]: 30
Plant response rating, Pigweed [17, 27]: 60
Plant response rating, Pigweed [17, 26]: 90
Corn plant response rating (0 to 100 scale) [18]: 0
Corn plant response rating [18]: 0
Plant response rating, Ducksalad [19]: 80
Plant response rating, Barnyardgrass ([20]; 31 g ai/ha): 0
Plant response rating, Barnyardgrass ([20]; 62 g ai/ha): 0
Plant response rating, Barnyardgrass ([20]; 125 g ai/ha): 0
Plant response rating, Barnyardgrass [21]: 0
Plant response rating, Wheat [22, 27]: 0
Plant response rating, Wheat [22, 26]: 0
Pigweed plant response rating (0 to 100 scale) [23]: 20
Pigweed plant response rating [23]: 80
Plant response rating, Rice [24]: 0
